Values quoted from earlier work in patent EP2583674A2, “ACECLOFENAC SLOW-RELEASE PREPARATION PROVIDING AN OPTIMUM PHARMACOLOGICAL CLINICAL EFFECT WHEN ADMINISTERED ONCE A DAY” (Korea United Pharm, Inc., priority 2010, dated 2011).

[1] = aceclofenac and the metabolites thereof

In the case of `O=C(O)COC(=O)Cc1ccccc1Nc1c(Cl)cccc1Cl` [aceclofenac, 2-[(2,6-dichlorophenyl)amino]-phenylacetoxyacetic acid], the excreted through stool [1] is given as “approximately 20%”, the excreted through urine [1] is given as “approximately 70%” and the “excretion rate (half-life)” value (in vivo) is given as “approximately 4 hours”. For the same compound, the duration (orally administered) was “approximately 12 hours” and the onset time (orally administered) was no more than 30 min.
